{
  "source": "patent US20180200257A1",
  "about": "“METHODS FOR THE TREATMENT OF INFLAMMATORY DISORDERS” (Galapagos NV, priority 2015, published 2018)",
  "system": "Subjects With Active Crohn's Disease With Evidence of Mucosal Ulceration",
  "assay": "Study 3 - Fecal calprotectin levels",
  "format": "in vivo, human",
  "settings": "200 mg; week 10; LOCF",
  "text": "Double-Blind, Randomized, Placebo-Controlled, Multi-Centre Study to Investigate the Efficacy and Safety of Compound 1 in Subjects With Active Crohn's Disease With Evidence of Mucosal Ulceration.\nThis is a double-blind, randomized, placebo-controlled, multi-centre Phase 2 study to investigate the efficacy and safety of Compound 1 administered once daily for the treatment of active CD with evidence of mucosal ulceration. The pharmacokinetics (including a PK substudy) and pharmacodynamics of Compound 1 and metabolite in CD will also be characterised.\nA total of 180 eligible subjects will be randomized to receive Compound 1 or placebo in addition to their stable background treatment (eg, corticosteroids, aminosalicylates, or CD-related antibiotics). The study will consist of 2 parts, with total treatment duration of 20 weeks. Randomization in Part 1 will be stratified according the subject's previous anti-TNF exposure/response, CRP level at Screening, and oral corticosteroid use at visit Day −1.\nAfter the first 10 weeks of treatment in Part 1, patients will be re-randomized for Part 2 as shown in the diagram below and will be stratified according to the subject's clinical response, previous anti-TNF exposure/response, and oral corticosteroid use at visit Day -1.\nFecal calprotectin is a protein belonging to the S100 family and occurring in large amounts in neutrophil granulocytes, where it accounts for 5% of total proteins and 60% of cytoplasm proteins. When inflammatory processes occur, calprotectin is released due to the degranulation of neutrophil granulocytes.\nIn bowel inflammation, calprotectin may be detected in the stool. The fecal levels provide direct information about the inflammation and is determined using a Calprest® enzyme immunoassay diagnostic kit (Eurospital Spa—Via Flavia 122-34147 Trieste—Italy; ref 9031).",
  "data": [
    {"smiles": "O=C(Nc1nc2cccc(-c3ccc(CN4CCS(=O)(=O)CC4)cc3)n2n1)C1CC1", "note": "[Compound 1, cyclopropanecarboxylic acid {5-[4-(1,1-dioxo-thiomorpholin-4-ylmethyl)-phenyl]-[1,2,4]triazolo[1,5-a]pyridin-2-yl}-amide]", "values": [
      {"measurement": "Fecal calprotectectin normalizing high to normal (<50 mg/kg), % subjects normalizing", "result": 12, "unit": "%"},
      {"measurement": "Fecal calprotectectin normalizing high to normal (>250 mg/kg to ≤250 mg/kg), % subjects normalizing", "result": 44, "unit": "%"},
      {"measurement": "Fecal calprotectin mean, % CFB", "result": 73, "unit": "%"},
      {"measurement": "Fecal calprotectin mean, CFB", "result": -86.7, "unit": "mg/kg"},
      {"measurement": "Fecal calprotectin median, % CFB", "result": "−29", "unit": "%"},
      {"measurement": "Fecal calprotectin median, CFB", "result": -75.5, "unit": "mg/kg"}
    ]}
  ]
}
